Test results published in US20240269139A1, “COMPOUNDS FOR TARGETED PROTEIN DEGRADATION OF KINASES” (DANA-FARBER CANCER INSTITUTE, INC., priority 2020, published 2024).
Entries after “also recorded” stand apart in the source; their conditions may differ.

Target: protein kinases (human kinome)
Format: cell-based
Conditions: for Kinase hits: kinases significantly downregulated vs DMSO (fold change cutoff −1.25, P-value<0.01), ≤8 h, 0.1-5 μM degrader, 7 cell lines; for Total no. kinase hits: number of degraded kinases per library compound; for kinases the bifunctional compound degrades: as stated for the structure in the embodiments; for logFC: BTK (Q06187-2), experiment wp055; for logFC of BTK (Q06187-2): Experiment wp055
Description: Although development of targeted protein degraders requires a POI binder, among already-liganded proteins such as kinases, it was hypothesized that different targets would have a different propensity for current approaches to degrader-mediated destruction, which was termed ‘degradability’. […] It was rationalized that the probability of identifying the same kinase as a false positive in multiple treatments is low, therefore this analysis served to also assess the robustness of our data and subsequent interpretations. […] Overall, 62 protein kinases were degraded in more than 10 independent treatments, and remarkably, 9 of these (CDK4, AURKA, FER, WEE1, BLK. LIMK2, CDK6, GAK, LIMK1) were each degraded in at least 40 of the 154 independent treatments, emphasizing their predisposition to induced degradation (FIG. 1G; Appendix I).
Next, the frequency of degradation assessment was corrected for over-representation of molecules in the full dataset by omitting replicate profiling of compounds under different experimental conditions, to remove any bias. […] Unsurprisingly, the top degradable kinases mirror those from the previous analysis (CDK4, AURKA, FER, WEE1, BLK), confirming that in sufficiently large datasets, even with over-representation of certain molecules, frequency of degradation is a good measure of general tractability.

NC(=O)c1c(F)cccc1Nc1nc(NC2CCN(S(=O)(=O)CCNC(=O)CCCCCCCCOc3cccc4c3C(=O)N(C3CCC(=O)NC3=O)C4=O)CC2)ncc1Br (stereo not shown) [TMX-01-160-1]
Kinase hits: AURKA, CDK1, CDK12, CDK16, CDK17, CDK2, CDK4, CDK5, CDK6, CDK7, CDK9, MAPK10, MAPK8, MAPK9, RPS6KA1 | Total no. kinase hits: 15

Cc1cnc(Nc2ccc(N3CCN(CCOCCOCCNC(=O)COc4cccc5c4C(=O)N(C4CCC(=O)NC4=O)C5=O)CC3)cc2)nc1Nc1cccc(S(=O)(=O)NC(C)(C)C)c1 (stereo not shown) [JWG-118]
kinases the bifunctional compound degrades: AAK1, AURKA, BMP2K, GAK, and WEE1 | Kinase hits: AAK1, AURKA, BMP2K, GAK, WEE1 | Total no. kinase hits: 5

Cc1ccc(C(=O)Nc2ccc(CN3CCN(CCOCCOCCNC(=O)CNc4cccc5c4C(=O)N(C4CCC(=O)NC4=O)C5=O)CC3)c(C(F)(F)F)c2)cc1C#Cc1cnc2cccnn12 (stereo not shown) [TL13-150]
Kinase hits: BLK, CDK5, FER, GAK, IRAK1, LCK, MAP4K2, MAPK14, RIPK1, SRC | Total no. kinase hits: 10

O=C(CCCCCCNC(=O)COc1cccc2c1C(=O)N(C1CCC(=O)NC1=O)C2=O)NCCOc1ccc(Nc2ncc3ccc(=O)n(C4CC5CCC4C5)c3n2)cc1 (stereo not shown) [SB1-G-194]
kinases the bifunctional compound degrades: AAK1, AURKA, AURKB, CDK6, CDK9, FGR2, STK17A, and TTK | Kinase hits: AAK1, AURKA, AURKB, CDK6, CDK9, FGR2, STK17A, TTK | Total no. kinase hits: 8

CNC(=O)c1ccccc1Nc1cc(Nc2ccc(N3CCN(CCOCCOCCNC(=O)CNc4cccc5c4C(=O)N(C4CCC(=O)NC4=O)C5=O)CC3)cc2OC)ncc1C(F)(F)F (stereo not shown) [MFH-5-103-1]
kinases the bifunctional compound degrades: AURKA, CDK1O, CDK7, MAPK7, PTK2B, RPS6KA1, RPS6KA3, STK33, and WEE1 | Kinase hits: AURKA, CDK10, CDK7, MAPK7, PTK2B, RPS6KA1, RPS6KA3, STK33, WEE1 | Total no. kinase hits: 9

Nc1ncnc2c1c(-c1ccc(Oc3ccccc3)cc1)nn2[C@@H]1CCCN(C(=O)CCCN2CCN(CCNC(=O)CCOCCOCCNc3cccc4c3C(=O)N(C3CCC(=O)NC3=O)C4=O)CC2)C1 (stereo partly shown) [DD-03-119]
kinases the bifunctional compound degrades: ABL2, BLK, CSK, FYN, LCK, SRC, and TEC | Kinase hits: ABL2, BLK, CSK, FYN, LCK, SRC, TEC | Total no. kinase hits: 3

C[C@@H]1C[C@@H](O)c2ncnc(N3CCN(C(=O)[C@H](CNCCCCCCCCCCc4cccc5c4C(=O)N(C4CCC(=O)NC4=O)C5=O)c4ccc(Cl)cc4)CC3)c21 (stereo partly shown) [INY-03-041-01]
Kinase hits: AKT1, AKT2, AKT3, CDK4, MAPK6, STK17A | Total no. kinase hits: 6

CCc1cnn2c(N(Cc3ccc(N)nc3)C(=O)CCOCCOCCOCCNC(=O)CNc3cccc4c3C(=O)N(C3CCC(=O)NC3=O)C4=O)cc(N3CCCC[C@H]3CCO)nc12 (stereo partly shown) [MFH-5-115-2]
kinases the bifunctional compound degrades: CDK4. AURK4. WEE1. STK17A, PLK1, BUB1, TTK, UHMK1, MAP3K1, BUB1B, RIOK2, NUAK1, PIM2, and CSNK1A1 | Kinase hits: CDK4, AURK4, WEE1, STK17A, PLK1, BUB1, TTK, UHMK1, MAP3K1, BUB1B, RIOK2, NUAK1, PIM2, CSNK1A1 | Total no. kinase hits: 14

Cc1c(NC(=O)c2ccc(C(C)(C)C)cc2)cccc1-c1cn(C)c(=O)c(Nc2ccc(C(=O)N3CCN(CCCCCCNC(=O)CNc4cccc5c4C(=O)N(C4CCC(=O)NC4=O)C5=O)CC3)cc2)n1 (stereo not shown) [DD.03.171]
logFC: −3.077 | logFC of BTK (Q06187-2): −3.077

Nc1ncc(-c2ccc(S(=O)(=O)N(CCCNC(=O)CCOCCOCCOCCOCCOCCNc3cccc4c3C(=O)N(C3CCC(=O)NC3=O)C4=O)C3CC3)cc2F)cc1-c1ccc2c(c1)CCNC2=O (stereo not shown) [WH-9533-153, N-(3-((4-(6-amino-5-(1-oxo-1,2,3,4-tetrahydroisoquinolin-6-yl)pyridin-3-yl)-N-cyclopropyl-3-fluorophenyl)sulfonamido)propyl)-1-((2-(2,6-dioxopiperidin-3-yl)-1,3-dioxoisoindolin-4-yl)amino)-3,6,9,12,15-pentaoxaoctadecan-18-amide]
Kinase hits: CDK14, CSNK1D, GSK3A, GSK3B, NUAK1, PIM2, STK17B, STK35, STK4 | Total no. kinase hits: 13

C=CCn1c(=O)c2cnc(Nc3ccc(N4CCN(CCCNc5cccc6c5C(=O)N(C5CCC(=O)NC5=O)C6=O)CC4)cc3)nc2n1-c1cccc(C(C)(C)O)n1 (stereo not shown) [ZNL-02-096]
Kinase hits: COQ8A, MKNK2, PAK4, PDK1, PDK2, PDK3, PRKCI, TBCK, WEE1 | Total no. kinase hits: 9

Cc1c(NC(=O)c2ccc(C(C)(C)C)cc2)cccc1-c1cn(C)c(=O)c(Nc2ccc(C(=O)N3CCN(CCCCCCNC(=O)CNc4cccc5c4C(=O)N(C4CCC(=O)NC4=O)C5=O)CC3)cc2)n1 (stereo not shown) [DD-03-171]
Kinase hits: BTK | Total no. kinase hits: 1

Cc1cnc(Nc2ccc(N3CCN(CCCCCCC(=O)N[C@H](C(=O)N4C[C@H](O)C[C@H]4C(=O)N[C@@H](C)c4ccc(-c5scnc5C)cc4)C(C)(C)C)CC3)cc2)nc1Nc1cccc(S(=O)(=O)NC(C)(C)C)c1 [JWG-123]
Kinase hits: AAK1, CDK16, WEE1, GAK, MARK4, NEK9, RPS6KB1, SIK2, SIK3, SNRK, STKI7A, STK17B | Total no. kinase hits: 12

CN(C)C(=O)c1cc2cnc(Nc3ccc(N4CCN(CCCCNC(=O)COc5cccc6c5C(=O)N(C5CCC(=O)NC5=O)C6=O)CC4)cn3)nc2n1C1CCCC1 (stereo not shown) [BSJ-04-132]
Kinase hits: BCKDK, CDK4, CDK6, COQ8A, PDK1, PDK2, PDK3, | Total no. kinase hits: 3

Cc1ncsc1-c1ccc([C@H](C)NC(=O)[C@@H]2C[C@@H](O)CN2C(=O)[C@@H](NC(=O)CCOCCOCCOCCN2CCC(C(=O)Nc3ncc(SCc4ncc(C(C)(C)C)o4)s3)CC2)C(C)(C)C)cc1 [ZZ-1-31B]
Kinase hits: CDK9, CLK1 | Total no. kinase hits: 2

CN1c2ccccc2C(=O)Nc2cnc(Nc3ccc(N4CCN(C(=O)CCOCCNc5cccc6c5C(=O)N(C5CCC(=O)NC5=O)C6=O)CC4)cc3)nc21 (stereo not shown) [ZNL-03-127]
kinases the bifunctional compound degrades: BLK, LIMK1, LIMK2, STK17A, and TNK2 | Kinase hits: BLK LIMK1, LIMK2 STK17A, TNK2 | Total no. kinase hits: 5

CC(C)S(=O)(=O)c1ccccc1Nc1nc(Nc2ccc(N3CCN(CCOCCOCCNC(=O)CNc4cccc5c4C(=O)N(C4CCC(=O)NC4=O)C5=O)CC3)cc2)ncc1Cl (stereo not shown) [TL12-186]
Kinase hits: AAK1, ABL1, AURKA, AURKB, BLK, BMPR1A, BUB1, BUB1B, CDK10, CDK12, CDK13, CDK17, CDK2, CDK4, CDK5, CDK6, CDK7, CDK9, COQ8A, COQ8B, CSNK1D, CSNK1E,; also recorded: EEF2K, FER, FLT1, GAK, HASPIN, IRAK4, ITK, LCK, LIMK1, LIMK2, MAP3K11, MAP3K21, MAP4K1, MAP4K3, MAPK6, MAPK7, MARK2, MARK4, NEK2, NLK, PDK2, PLK4, PRAG1, PRKAA1, PTK2B, RIOK2, RPS6KA1, SIK2, SRC, STK10, STK17A, STK35, TEC, TNK2, ULK1, ULK3, WEE1, YES1 | Total no. kinase hits: 60

CC(C)(C)c1nc(-c2cccc(NS(=O)(=O)c3c(F)cccc3F)c2F)c(-c2ccnc(NCCOCCNC(=O)CCOCCOCCNc3cccc4c3CN(C3CCC(=O)NC3=O)C4=O)n2)s1 (stereo not shown) [DD-03-107]
kinases the bifunctional compound degrades: BCKDK, COQ8A, LIMK1, PDK1, PDK2, and PDK3 | Kinase hits: BCKDK, COQ8A, LIMK1, PDK1, PDK2, PDK3 | Total no. kinase hits: 6

Cc1c(NC(=O)c2ccc(C(C)(C)C)cc2)cccc1-c1cn(C)c(=O)c(Nc2ccc(C(=O)N3CCN(CCCCCCNC(=O)COc4cccc5c4C(=O)N(C4CCC(=O)NC4=O)C5=O)CC3)cc2)n1 (stereo not shown) [DD.04.118]
logFC: −3.263 | logFC of BTK (Q06187-2): −3.263

Cc1ncsc1-c1ccc([C@H](C)NC(=O)[C@@H]2C[C@@H](O)CN2C(=O)[C@@H](NC(=O)CCCCOc2ccccc2-c2ccc3nc(-c4cccnc4N)n(-c4ccc(C5(N)CCC5)cc4)c3n2)C(C)(C)C)cc1 [INY-04-125-01]
kinases the bifunctional compound degrades: LATS1 and STK17A | Kinase hits: LATS1, STK17A | Total no. kinase hits: 2

Nc1ncnc2c1c(-c1ccc(Oc3ccccc3)cc1)nn2[C@H]1CC[C@H](N2CCN(CCOCCNC(=O)CNc3cccc4c3C(=O)N(C3CCC(=O)NC3=O)C4=O)CC2)CC1 (stereo partly shown) [SB1-G-181]
Kinase hits: ABL1, ABL2, AURKA, BLK, CSK, CSNK1E, FYN, LATS1, LCK, LIMK1, MAP2K5, SRC | Total no. kinase hits: 12

CNC(=O)c1ccccc1Nc1cc(Nc2ccc(N3CCN(CCCCCCCCNc4cccc5c4C(=O)N(C4CCC(=O)NC4=O)C5=O)CC3)cc2OC)ncc1C(F)(F)F (stereo not shown) [MFH-5-116-1]
kinases the bifunctional compound degrades: AURKA, NUAK1, PTK2B, RPS6KA1, RPS6KA3, STK33, and WEE1 | Kinase hits: AURKA, NUAK1, PTK2B, KPS6KA1, RPS6KA3, STK33, WEE1 | Total no. kinase hits: 7

Cc1ncsc1-c1ccc([C@H](C)NC(=O)[C@@H]2C[C@@H](O)CN2C(=O)[C@@H](NC(=O)CCCCCCc2ccc(Nc3ncc4c(n3)-c3ccccc3NC(=O)N4)cc2)C(C)(C)C)cc1 [JWG-148]
kinases the bifunctional compound degrades: ABL2, EPHB2, SIK2, and TYK2 | Kinase hits: ABL2, EPHB2, SIK2, TYK2 | Total no. kinase hits: 4

O=C(COc1cccc2c1C(=O)N(C1CCC(=O)NC1=O)C2=O)NCCCCCCCC(=O)NC1(c2ccc(-c3nc4ccn5c(=O)[nH]nc5c4cc3-c3ccccc3)cc2)CCC1 (stereo not shown) [INY-01-140-1]
kinases the bifunctional compound degrades: PDK1, PDK2, and PDK3 | Kinase hits: PDK1, PDK2, PDK3 | Total no. kinase hits: 3

NC(=O)c1c(F)cccc1Nc1nc(Nc2ccc(S(=O)(=O)NCCOCCOCCOCCOCCNc3cccc4c3C(=O)N(C3CCC(=O)NC3=O)C4=O)cc2)ncc1Br (stereo not shown) [TMX-02-138]
Kinase hits: AAKI, AURKA, AURKB, CDK1, CDK12, CDK16, CDK17, CDK2, CDK5, CDK7, CDK9, CLK1, FER, GSK3A, GSK3B, IRAK3, MAPSK11, MAPK8, MAPK9, NUAK1, PRKAA1, PRKAA2, PTK2B, RPS6KA1, RPS6KA3, STK33, STK38, TTK | Total no. kinase hits: 28

CS(=O)(=O)c1ccc(-c2cccn3nc(Nc4cccc(N5CCN(CCCCCCNC(=O)COc6cccc7c6C(=O)N(C6CCC(=O)NC6=O)C7=O)CC5)c4)nc23)cc1 (stereo not shown) [JWG-120]
kinases the bifunctional compound degrades: AAK1 and AURKA | Kinase hits: AAK1, AURKA | Total no. kinase hits: 2
